Assay: xn = mol fraction of the nth substance listed
Conditions: 101 kPa, Liquid; for viscosity: Falling or rolling sphere viscometry; for mass density: Vibrating tube method

CCCC[N+]1(C)CCCC1.[Br-] [1-butyl-1-methylpyrrolidinium bromide] + O
Conditions | mass density, 298.15 K [kg/m3] | mass density, 303.15 K [kg/m3] | mass density, 308.15 K [kg/m3] | mass density, 313.15 K [kg/m3] | mass density, 318.15 K [kg/m3] | viscosity, 298.15 K [mPa·s] | viscosity, 303.15 K [mPa·s] | viscosity, 308.15 K [mPa·s] | viscosity, 313.15 K [mPa·s] | viscosity, 318.15 K [mPa·s]
x1 = 0.0265 | 1049.2 | 1047.05 | 1044.76 | 1042.32 | 1039.75 | 1.64 | 1.444 | 1.24 | 1.099 | 0.987
x1 = 0.0561 | 1093.18 | 1090.36 | 1087.45 | 1084.45 | 1081.37 | 2.906 | 2.5 | 2.11 | 1.833 | 1.621
x1 = 0.0871 | 1125.96 | 1122.7 | 1119.39 | 1116.03 | 1112.61 | 4.9 | 4.146 | 3.445 | 2.945 | 2.579
x1 = 0.1283 | 1156.08 | 1152.59 | 1149.06 | 1145.49 | 1141.9 | 8.897 | 7.398 | 6.041 | 5.106 | 4.399
x1 = 0.1645 | 1174.63 | 1171.08 | 1167.5 | 1163.9 | 1160.28 | 13.84 | 11.27 | 9.049 | 7.53 | 6.4
x1 = 0.2074 | 1190.42 | 1186.89 | 1183.35 | 1179.78 | 1176.2 | 22.21 | 17.69 | 13.87 | 11.35 | 9.501
x1 = 0.2525 | 1202.66 | 1199.19 | 1195.71 | 1192.21 | 1188.7 | 36.28 | 27.6 | 21.22 | 17.02 | 14.03
x1 = 0.28 | 1208.32 | 1204.89 | 1201.45 | 1198 | 1194.53 | 44.98 | 34.67 | 26.45 | 20.97 | 17.12
x1 = 0.3012 | 1212.16 | 1208.76 | 1205.35 | 1201.93 | 1198.5 | 54.7 | 41.65 | 31.5 | 24.8 | 20.1
x1 = 0.3254 | 1215.99 | 1212.62 | 1209.25 | 1205.87 | 1202.48 | 67.64 | 51.14 | 38.4 | 30.02 | 24.1
x1 = 1 | 1221.19 | 1217.27 | 1213.38 | 1209.51 | 1205.66 | – | – | – | – | –

Reference: the NIST ThermoML archive (doi:10.1016/j.tca.2014.05.028)
